According to PMC9138505, “Small Molecule 20S Proteasome Enhancer Regulates MYC Protein Stability and Exhibits Antitumor Activity in Multiple Myeloma” (Biomedicines, 2022):
“And” between values parts separate entries of the source, which are not always exact repeats. Equal values may be shown once.

System: RPMI-8226 cells
Experiment: Gene expression profiling, NanoString nCounter PanCancer Pathways Panel, ROSALIND analysis
Type: cell-based, human
Settings: RPMI-8226, TCH-165 samples 1-3
Procedure: RPMI-8226 cells were treated with vehicle or TCH-165 (10 μM) for 4 h. Total RNA was obtained using the mirVana miRNA Isolation Kit, with phenol (Thermofisher Scientific; AM1560; Waltham, MA, USA). Total RNA was quantified by Qubit (Thermofisher Scientific; Q32855; Waltham, MA, USA). and gene expression was evaluated against the nCounter® PanCancer Pathways Panel^TM according to the standard NanoString protocol.
Data were analyzed by ROSALIND® [36] with a hyperscale architecture developed by ROSALIND, Inc. (San Diego, CA, USA). Normalization, fold changes and p-values were calculated using criteria provided by NanoString. ROSALIND follows the nCounter® Advanced Analysis protocol of dividing counts within a lane by the geometric mean of the normalizer probes from the same lane. Housekeeping probes to be used for normalization are selected based on the geNorm algorithm, as implemented in the NormqPCR R library. Fold changes and p-values are calculated using the fast method as described in the nCounter Advanced Analysis 2.0 User Manual. The p-value adjustment is performed using the Benjamini–Hochberg method of estimating false discovery rates (FDR). Clustering of genes for the final heatmap of differentially expressed genes was done using the PAM (Partitioning Around Medoids) method using the fpc R library. Hypergeometric distribution was used to analyze the enrichment of pathways, gene ontology, domain structure and other ontologies. The topGO R library was used to determine local similarities and dependencies between GO terms in order to perform Elim pruning correction. Several database sources were referenced for enrichment analysis, including Interpro [40], NCBI [41], MSigDB [42, 43], REACTOME [44], WikiPathways. Enrichment was calculated relative to a set of background genes relevant to the experiment.

## CCOC(=O)[C@]1(c2ccccc2)N=C(c2ccc(OC)cc2)N(Cc2ccccc2)[C@@H]1c1ccc(NCc2ccccc2)cc1 [TCH-165]
  PDGFA normalized gene expression: 6.283 and 6.012 and 6.0068
  PDGFB normalized gene expression: 4.649 and 4.855 and 4.437
  PDGFRA normalized gene expression: 4.401 and 4.3768 and 3.876
  PDGFRB normalized gene expression: 4.86 and 4.614 and 4.483
  PGF normalized gene expression: 5.308 and 4.817 and 4.238
  PIK3CA normalized gene expression: 10.0553 and 10.0309 and 10.0578
  PIK3CB normalized gene expression: 6.955 and 6.836 and 6.778
  PIK3CD normalized gene expression: 5.445 and 5.636 and 4.975
  PIK3CG normalized gene expression: 8.477 and 8.424 and 8.357
  PIK3R1 normalized gene expression: 7.74 and 7.729 and 7.668
  PIK3R3 normalized gene expression: 10.4707 and 10.3784 and 10.3886
  PIK3R5 normalized gene expression: 8.581 and 8.361 and 8.483
  PIM1 normalized gene expression: 9.677 and 9.621 and 9.503
  PITX2 normalized gene expression: 3.723 and 3.817 and 3.39
  PKMYT1 normalized gene expression: 9.448 and 9.494 and 9.482
  PLA1A normalized gene expression: 4.571 and 4.7789 and 4.5707
  PLA2G2A normalized gene expression: 5.723 and 5.0613 and 5.549
  PLA2G3 normalized gene expression: 5.955 and 5.7789 and 5.549
  PLA2G4A normalized gene expression: 9.821 and 9.8479 and 9.947
  PLA2G4C normalized gene expression: 3.986 and 4.324 and 4.0682
  PLA2G5 normalized gene expression: 4.208 and 4.855 and 5.0068
  PLA2G10 normalized gene expression: 4.793 and 4.569 and 4.9095
  PLAT normalized gene expression: 5.101 and 4.855 and 4.805
  PLAU normalized gene expression: 5.758 and 5.452 and 5.461
  PLCB1 normalized gene expression: 7.331 and 7.169 and 7.1906
  PLCB4 normalized gene expression: 8.221 and 8.1619 and 8.141
  PLCE1 normalized gene expression: 3.571 and 3.962 and 3.291
  PLCG2 normalized gene expression: 7.802 and 7.657 and 7.688
  PLD1 normalized gene expression: 4.723 and 4.524 and 4.0068
  PML normalized gene expression: 9.305 and 9.103 and 9.111
  POLB normalized gene expression: 8.277 and 8.166 and 8.094
  POLD1 normalized gene expression: 6.955 and 6.97 and 7.225
  POLE2 normalized gene expression: 7.876 and 7.784 and 7.712
  POLR2D normalized gene expression: 10.3534 and 10.1749 and 10.2456
  POLR2H normalized gene expression: 9.625 and 9.653 and 9.593
  POLR2J normalized gene expression: 8.023 and 8.1988 and 7.922
  PPARG normalized gene expression: 5.308 and 4.093 and 4.841
  PPARGC1A normalized gene expression: 5.156 and 4.855 and 4.5707
  PPP2CB normalized gene expression: 9.355 and 9.581 and 9.539
  PPP2R1A normalized gene expression: 10.9153 and 10.8543 and 10.8588
  PPP2R2B normalized gene expression: 5.208 and 3.891 and 3.876
  PPP2R2C normalized gene expression: 4.401 and 4.154 and 4.653
  PPP3CA normalized gene expression: 8.9359 and 8.866 and 8.858
  PPP3CB normalized gene expression: 6.793 and 6.5 and 6.673
  PPP3CC normalized gene expression: 7.784 and 7.44 and 7.5547
  PPP3R1 normalized gene expression: 12.1844 and 12.0743 and 12.0585
  PRDM1 normalized gene expression: 9.955 and 9.965 and 9.796
  PRKAA2 normalized gene expression: 5.445 and 4.927 and 5.238
  PRKACA normalized gene expression: 10.3765 and 10.3832 and 10.3727
  PRKACB normalized gene expression: 9.149 and 8.936 and 8.955
  PRKACG normalized gene expression: 5.955 and 4.996 and 4.975
  PRKAR1B normalized gene expression: 7.319 and 7.093 and 7.231
  PRKAR2A normalized gene expression: 10.8995 and 10.8368 and 10.7359
  PRKAR2B normalized gene expression: 4.924 and 5.5 and 5.291
  PRKCA normalized gene expression: 5.61 and 5.739 and 5.858
  PRKCB normalized gene expression: 5.101 and 5.5 and 5.1271
  PRKCG normalized gene expression: 3.208 and 3.154 and 2.805
  PRKDC normalized gene expression: 10.6509 and 10.6549 and 10.5707
  PRKX normalized gene expression: 6.924 and 6.699 and 6.769
  PRL normalized gene expression: 5.156 and 4.7789 and 4.483
  PRLR normalized gene expression: 4.401 and 4.324 and 4.483
  PROM1 normalized gene expression: 5.488 and 4.817 and 5.1271
  PTCH1 normalized gene expression: 6.423 and 6.1393 and 6.303
  PTEN normalized gene expression: 10.0245 and 10.0523 and 10.0068
  PTPN11 normalized gene expression: 10.4091 and 10.3872 and 10.2825
  PTPRR normalized gene expression: 5.156 and 5.27 and 4.876
  PTTG2 normalized gene expression: 10.7067 and 10.7173 and 10.7103
  RAC1 normalized gene expression: 10.809 and 10.6987 and 10.6841
  RAC2 normalized gene expression: 9.175 and 9.2187 and 9.226
  RAC3 normalized gene expression: 7.412 and 7.085 and 7.42
  RAD21 normalized gene expression: 12.3086 and 12.2658 and 12.2586
  RAD50 normalized gene expression: 8.5605 and 8.589 and 8.653
  RAD51 normalized gene expression: 8.142 and 8.041 and 8.102
  RAD52 normalized gene expression: 7.767 and 7.625 and 7.698
  RAF1 normalized gene expression: 10.0005 and 9.906 and 9.965
  RASA4 normalized gene expression: 8.175 and 8.284 (2×)
  RASAL1 normalized gene expression: 7.884 and 7.864 and 8.034
  RASGRF1 normalized gene expression: 5.355 and 5.27 and 5.1271
  RASGRF2 normalized gene expression: 4.401 and 4.154 and 4.39
  RASGRP1 normalized gene expression: 3.571 and 3.27 and 2.805
  RASGRP2 normalized gene expression: 5.355 and 4.7789 and 5.184
  RB1 normalized gene expression: 10.4258 and 10.2516 and 10.3605
  RBX1 normalized gene expression: 11.212 and 11.2858 and 11.2821
  RELA normalized gene expression: 9.023 and 9.033 and 8.932
  RELN normalized gene expression: 3.208 and 3.154 and 2.653
  RET normalized gene expression: 4.488 and 3.154 and 4.1271
  RFC3 normalized gene expression: 10.5818 and 10.4756 and 10.5331
  RFC4 normalized gene expression: 10.5805 and 10.6642 and 10.6099
  RHOA normalized gene expression: 10.324 and 10.1814 and 10.1759
  RIN1 normalized gene expression: 5.308 and 5.324 and 5.211
  RNF43 normalized gene expression: 5.044 and 4.569 and 4.528
